experiment: Micelle/water partition coefficient (Pmic) of the compound was determined; assay type: physicochemical; conditions: buffer

| SMILES | Log Pmic |
| --- | --- |
| Cc1cc(=O)n(-c2ccccc2)n1C [ANTIPYRINE] | 0.58 |
| CN1CC(=O)NC1=N [CREATININE] | -0.3 |
| COc1cccc2c1C(=O)c1c(O)c3c(c(O)c1C2=O)C[C@@](O)(C(=O)CO)C[C@@H]3O[C@H]1C[C@H](N)[C@H](O)[C@H](C)O1 [DOXORUBICIN] | 1.9 |
| O=c1[nH]cc(F)c(=O)[nH]1 [FLUOROURACIL] | 0.21 |
| NC=O [FORMAMIDE] | -0.35 |
| Cc1ncc([N+](=O)[O-])n1CCO [METRONIDAZOLE] | 0.54 |
| CNC(=O)c1cccnc1 [NICOTINYL METHYLAMIDE] | 0.39 |
| CCc1nc(N)nc(N)c1-c1ccc(Cl)cc1 [PYRIMETHAMINE] | 2.51 |
| O=c1[nH]c(=O)n(C2CCCO2)cc1F (configuration not stated) [TEGAFUR] | 0.7 |
| NC(N)=S [THIOUREA] | 0.48 |
| NC(N)=O [UREA] | -0.12 |
| CC[C@]1(O)C[C@H]2CN(CCc3c([nH]c4ccccc34)[C@@](C(=O)OC)(c3cc4c(cc3OC)N(C=O)[C@H]3[C@@](O)(C(=O)OC)[C@H](OC(C)=O)[C@]5(CC)C=CCN6CC[C@]43[C@@H]65)C2)C1 [VINCRISTINE] | 2.48 |

Reference: ChEMBL document CHEMBL1129683, “Thermodynamic aspects of hydrophobicity and the blood-brain barrier permeability studied with a gel filtration chromatography” (J Med Chem, 1996)
